One assay concerns the target HIV RT (Human immunodeficiency virus type 1 group M subtype B, UniProt P04585). The experiment in a line: enzyme kinetics studies (1/v versus 1/[dTTP]). The settings on record: 40-3 μM dTTP, 2-0 μM compound, poly(rA)oligo(dT); lines cross at Y-axis intercept. It is filed as biochemical. Here is the method: The enzyme kinetics studies were carried out using a protocol involving a 4×5 matrix of varying substrate and inhibitor concentrations over ranges of 40-3 μM of dTTP and 2-0 μM of compound 1.
The reaction mixtures (50 μl) further contained 50 mM Tris.HCl (pH 7.8), 5 mM dithiothreitol, […], 500 μM EDTA, 150 mM KCl, 5 mM MgCl2, 0.15 mM of the template/primer poly(rA)oligo(dT) and 0.06% Triton X-100.
The reaction mixtures were incubated at 37° C. for 15 min, at which time 100 μl of calf thymus DNA (150 pg/ml), 2 ml of Na4P2O7 (0.1 M in 1 M HCl), and 2 ml of trichloroacetic acid (10% v/v) were added. The solutions were kept on ice for 30 min, after which the acid-insoluble material was washed and analyzed for radioactivity. When the reciprocal of the reaction velocity (1/v) is plotted against the reciprocal of the substrate concentration (1/[dTTP]) in the presence of different concentrations of compound 1, the graph (See FIG. 1) is obtained.

The subject of assay [1] is site-directed mutant of wild-type HIV-1 (HXB2) that contains the K103N and Y181C mutation. The assay is described as follows: anti-viral cellular assay, MT4 cells, MTT readout, NNRTI-resistant mutant virus. It counts as cell-based. The settings on record: Human immunodeficiency virus 1, HXB2, MT4. The protocol: HIV- or mock-infected MT4 cells were incubated for five days in the presence of various concentrations of the test compound. At the end of the incubation period, the replicating virus in the control cultures had killed all HIV-infected cells in the absence of any inhibitor. Cell viability was determined by measuring the concentration of MTT, a yellow, water soluble tetrazolium dye that is converted to a purple, water insoluble formazan in the mitochondria of living cells only. Upon solubilization of the resulting formazan crystals with isopropanol, the absorbance of the solution was monitored at 540 nm. The values correlate directly to the number of living cells remaining in the culture at the completion of the five day incubation. The inhibitory activity of the compound was monitored on the virus-infected cells and was expressed as EC50 and EC90. These values represent the amount of the compound required to protect 50% and 90%, respectively, of the cells from the cytopathogenic effect of the virus. The toxicity of the compound was measured on the mock-infected cells and was expressed as CC50, which represents the concentration of compound required to inhibit the growth of the cells by 50%. […] Wherever results are reported as e.g. pEC50 or pCC50 values, the result is expressed as the negative logarithm of the result expressed as EC50 or CC50 respectively. […]

The subject of assay [2] is wild-type HIV-1 (LAI strain). The experiment in a line: anti-viral cellular assay, HIV-infected MT4 cells, MTT readout, wild-type virus. It counts as cell-based. The note with it: Human immunodeficiency virus 1, 120 h, five days. The protocol:
The test compounds are examined for anti-viral activity in a cellular assay performed according to the following procedure.
HIV- or mock-infected MT4 cells were incubated for five days in the presence of various concentrations of the test compound. At the end of the incubation period, the replicating virus in the control cultures had killed all HIV-infected cells in the absence of any inhibitor. Cell viability was determined by measuring the concentration of MTT, a yellow, water soluble tetrazolium dye that is converted to a purple, water insoluble formazan in the mitochondria of living cells only. Upon solubilization of the resulting formazan crystals with isopropanol, the absorbance of the solution was monitored at 540 nm. The values correlate directly to the number of living cells remaining in the culture at the completion of the five day incubation. The inhibitory activity of the compound was monitored on the virus-infected cells and was expressed as EC50 and EC90. These values represent the amount of the compound required to protect 50% and 90%, respectively, of the cells from the cytopathogenic effect of the virus. […] Wherever results are reported as e.g. pEC50 or pCC50 values, the result is expressed as the negative logarithm of the result expressed as EC50 or CC50 respectively.

In assay [3] the target is T1, HIV Reverse Transcriptase (Human immunodeficiency virus type 1 group M subtype B, UniProt P04585).
T1 construct: purchased Amersham Life Sciences TRK 1022
The assay is described as follows: in vitro inhibition of HIV reverse transcriptase in presence and absence of ATP or other nucleoside phosphates (kit TRK 1022). It counts as biochemical. Here is the method:
The assay was run using kit TRK 1022™ (Amersham Life Sciences) according to the manufacturer's instructions with slight modifications. Test compounds were diluted in steps of ¼ in 100% DMSO and subsequently diluted 1/50 in Medium A (RPMI 1640+10% fetal calf serum, […] gentamycin).
In each experiment three conditions were tested: wells filled with 25 μl of the above compound solutions, wells filled with 25 μl 2% DMSO in Medium A (RO) and wells filled with 100 μl Stopsolution and 25 μl DMSO in Medium A (RI). To each well was added 25.5 μl master mix (5 μl primer/template beads, 10 μl assay buffer, 0.5 μl tracer (50 μM [3H]-dTTP), 5 μl HIV RT enzyme solution (15 mU/μl), 5 μl Medium A). The plates were sealed, and incubated during 4 hours at 37° C. Subsequently, 100 μl stop solution was added to each well (except RI). The radioactivity was counted in a TopCount™.
For testing compound inhibition in the presence of ATP the same protocol as above was used but the Medium A in the master mix was replaced with Medium A containing 320 mM ATP.
The procedures of example 1 were repeated but ATP was changed by a number of other nucleoside phosphates. The following table lists the tested nucleoside phosphates and the IC50 values in μM of compound 1 obtained in the presence of the concerned nucleoside phosphate.

Results on one molecule are retold here after patent US20080138812A1, “Screening Method For Competitive Hiv Rt Inhibitors” (priority 2005, published 2008).

On to `Cn1c2ccccc2c2c1cc(C#N)c(=O)n2-c1ccc([N+](=O)[O-])cc1` [Compound 1], for which the “mode of HIV RT inhibition” value at HIV RT is reported as “competitive mode of HIV RT inhibition”. Besides, the values for the 50% effective concentration (EC50) in assay [1] and in assay [2] were 98 nM and 45 nM, respectively. The IC50 (commonly the point on the concentration scale where inhibition reaches its midpoint) was 300 nM in assay [3] (in the absence of ATP); 23 nM in assay [3] (in the presence of ADP); 17.8 nM in assay [3] (in the presence of AMP); 16 nM in assay [3] (in the presence of ATP (Medium A in master mix containing 320 mM ATP)); 24.5 nM in assay [3] (in the presence of ATPbgNH); 12.4 nM in assay [3] (in the presence of ATPgS). Further, the IC50 was 114 nM in assay [3] (in the presence of CTP), 70.4 nM in assay [3] (in the presence of GTP), 199 nM in assay [3] (in the presence of PPi) and 51.9 nM in assay [3] (in the presence of UTP).
